Patent US8143394B2, “Pyrido(3,2-d)pyrimidines useful for treating viral infections” (Gilead Sciences, Inc., priority 2006, dated 2012)
Read-outs that look alike come from different tables or passages of the source.

Assays:
HCV replicon = assay: Anti-HCV replicon assay (EC50, luciferase readout); assay type: cell-based; details: human hepatoma Huh-7 cell line harbouring a HCV replicon, 3 days, luciferase, read-out: EC50
In short: (§1)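 Huh-7 cells bearing HCV replicon, 6000 per well, exposed 3 days at 37 °C to 3-fold compound dilutions (0.5% DMSO final where used). EC50 from luciferase luminescence after lysis; CC50 (50% growth inhibition) from CellTiter-Glo luminescence in parallel plates.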

Huh-7 HCV replicon cells = assay: CC50 assay (CellTiter-Glo) in Huh-7 HCV replicon cells; assay type: cell-based, human; details: 3 days, 50% cytostatic concentration
In short: as §1

[1] = as above; assay type: cell-based, human; details: human, 50% cytostatic concentration
In short: as §1

Row | Compound | EC50 (HCV replicon) [nM] | CC50 (Huh-7 HCV replicon cells) [nM] | EC50 (HCV replicon; Hepatitis C virus, 72 h) [nM] | CC50 at 3 days [1] [nM]
1 | 4-ethoxy-6-(5-methyl-4H-[1,2,4]triazol-3-yl)-pyrido[3,2-d]pyrimidin-2-ylamine [Example 88] | 300 to 1000 | 10000 to 20000 |  | 
2 | CC(C)N1CCC(NC(=O)c2ccc(-c3ccc4nc(N)nc(O[C@H]5CCOC5)c4n3)cc2)CC1 [Example 77, 4-[2-Amino-4-(tetrahydro-furan-3-yloxy)-pyrido[3,2-d]pyrimidin-6-yl]-N-(1-isopropyl-piperidin-4-yl)-benzamide] |  |  | > 1000 | > 20000
3 | CC(=O)Nc1ccc(-c2ccc3nc(N)nc(N4CCS(=O)(=O)CC4)c3n2)cc1 [Example 15, N-{4-[2-Amino-4-(1,1-dioxo-1λ^6-thiomorpholin-4-yl)-pyrido[3,2-d]pyrimidin-6-yl]-phenyl}-acetamide] |  |  | < 300 | > 20000
4 | CCC(=O)Nc1ccc(-c2ccc3nc(N)nc(NCCOC)c3n2)cc1 [Example 8, N-{4-[2-Amino-4-(2-methoxy-ethylamino)-pyrido[3,2-d]pyrimidin-6-yl]-phenyl}-propionamide] |  |  | < 300 | > 20000
5 | CCOc1nc(N)nc2ccc(-c3ccc(C(=O)NC4CC4)s3)nc12 [Example 89, 2-amino-4-ethoxy-6-(2-(N-(cyclopropyl)carbamoyl)-5-thiophenyl)pyrido[3,2-d]pyrimidine] |  |  | < 300 | > 20000
6 | CCOc1nc(N)nc2ccc(-c3cccc(NS(=O)(=O)CC(F)(F)F)c3)nc12 [Example 35, 2,2,2-Trifluoro-ethanesulfonic acid [3-(2-amino-4-ethoxy-pyrido[3,2-d]pyrimidin-6-yl)-phenyl]-amide] |  |  | 300 to 1000 | > 20000
7 | CCOc1nc(N)nc2ccc(-c3ccc(C(=O)Nc4ccc(F)cc4)cc3)nc12 [Example 86, 4-(2-Amino-4-ethoxy-pyrido[3,2-d]pyrimidin-6-yl)-N-(4-fluoro-phenyl)-benzamide] |  |  | 300 to 1000 | > 20000
